This is an account of results in patent US20250034164A1, “NOVEL COMPOUND AND COMPOSITION FOR PREVENTING OR TREATING NEUROINFLAMMATORY BRAIN DISEASES COMPRISING SAME AS ACTIVE INGREDIENT” (KOREA INSTITUTE OF OCEAN SCIENCE & TECHNOLOGY, priority 2021, published 2025).

In the first assay the test system is nitric oxide (NO) produced in mouse BV-2 microglia cells stimulated with LPS. Description: NO production inhibition in LPS-stimulated BV-2 microglia cells (Griess reagent). In kind it is cell-based. The conditions noted are these: BV-2 cells, LPS 200 ng/ml, treated at 2.5 to 20 PM (FIG. 37A). As to the method: BV-2 microglia cells were cultured in a humidified 5% CO2 incubator at 37° C. using a Dulbecco's modified Eagle medium supplemented with 5% fetal bovine serum and 1% penicillin/streptomycin at 100 units/mL.
In all experiments, the number of cells was 2.5×10^5 cell/ml, the cells were first treated with each of Compounds of Examples 1 to 25 by concentration (2.5 to 200 μg/ml), and LPS was diluted in medium and used at a concentration of 200 ng/ml. A cytotoxicity test was performed using MTT assay, and the MTT assay was performed by performing NO assay and injecting 30 μl of MTT at a concentration of 0.5 mg/ml into the cells in a microplate. After reacting for 2 hours in the incubator, formazan crystals were dissolved in 100 μl of DMSO, and the absorbance was measured using a Vmax microplate reader (Tencan Co., Switzerland) with a wavelength of 540 nm. In order to quantitatively measure the production of nitric oxide (NO), mouse BV-2 microglia cells were prepared in a microplate (96 well), and added with LPS (200 ng/ml) and Compounds by concentration (2.5 to 200 μg/ml). The cells reacted in an incubator for 24 h, and 50 μl of the supernatant reacted with a Griess reagent (a mixed solution of 1% sulfanilamide, 0.1% N-(1-naphthyl)-ethylenediamine dihydrochloride, and 2.5% H3PO4), and then the absorbance was measured using a Vmax 96-well microplate spectrophotometer with a wavelength of 550 nm.
In order to analyze the anti-inflammatory efficacy of Compound of Example 1, the concentration inhibitory effect of nitric oxide (NO) produced in mouse BV-2 microglia cells stimulated with LPS (200 ng/ml), a neuroinflammatory factor, was confirmed.
The neuroinflammation inhibitory effects of Compounds of Examples 2 to 25 were confirmed.
In order to analyze the anti-inflammatory efficacy of Compound 26 of Chemical Formula 2, the concentration inhibitory effect of nitric oxide (NO) produced in mouse BV-2 microglia cells stimulated with LPS (200 ng/ml), a neuroinflammatory factor, was confirmed. Compound 26 of Chemical Formula 2 was purchased from Santa Cruz biotechnology (CAS 79127-35-8) and the experiment was performed. As a result of treating Compound of Chemical Formula 2 at […], it was confirmed that the amount of nitric oxide (NO) was reduced, as shown in FIG. 37A.
With `NC(=O)C1=C[C@H]2[C@@H]3C=CC2(O)C(=O)O[C@@H]3O1` (stereo in doubt) [Compound 26, (1S,4aS,5R,7aS)-5-hydroxy-8-oxo-1,4a,5,7a-tetrahydro-1,5-(epoxymethano)cyclopenta[c]pyran-3-carboxamide], the “amount of nitric oxide (NO)” value is listed as “reduced”.

The assay is the same for the next values; noted with them: mouse BV-2 microglia cells, LPS 200 ng/ml, 24 h; read-out: NO inhibitory activity (IC50 value).
As for `CC(=O)OCC1=C[C@H]2[C@@H]3C=C[C@H]2C(=O)O[C@@H]3O1` [Compound 2, ((1S,4aS,5R,7aS)-8-oxo-1,4a,5,7a-tetrahydro-1,5-(epoxymethano)cyclopenta[c]pyran-3-yl)methyl acetate], the IC50 is over 20 µM. In the case of `COCC1=C[C@H]2[C@@H]3C=C[C@H]2C(=O)O[C@@H]3O1` [Compound 3, (1S,4aS,5R,7aS)-3-(methoxymethyl)-1,4a,5,7a-tetrahydro-1,5-(epoxymethano)cyclopenta[c]pyran-8-one], the IC50 is over 20 µM.

`O=C(O)C1=C[C@H]2[C@@H]3C=C[C@H]2C(=O)O[C@@H]3O1` [Compound 5, (1S,4aS,5R,7aS)-8-oxo-1,4a,5,7a-tetrahydro-1,5-(epoxymethano)cyclopenta[c]pyran-3-carboxylic acid]: the concentration for half-maximal inhibition (IC50) was over 20 µM. Consider `O=C(OCC1=C[C@H]2[C@@H]3C=C[C@H]2C(=O)O[C@@H]3O1)c1ccccc1` [Compound 7, ((1S,4aS,5R,7aS)-8-oxo-1,4a,5,7a-tetrahydro-1,5-(epoxymethano)cyclopenta[c]pyran-3-yl)methyl benzoate], for which the IC50 was over 20 µM.

Take `C=CCCCCCCCCC(=O)OCC1=C[C@H]2[C@@H]3C=C[C@H]2C(=O)O[C@@H]3O1` [Compound 8, ((1S,4aS,5R,7aS)-8-oxo-1,4a,5,7a-tetrahydro-1,5-(epoxymethano)cyclopenta[c]pyran-3-yl)methylundec-10-enoate]: the IC50 is over 20 µM. On to `CCC(C)C(=O)OCC1=C[C@H]2[C@@H]3C=C[C@H]2C(=O)O[C@@H]3O1` (stereo partly drawn) [Compound 9, ((1S,4aS,5R,7aS)-8-oxo-1,4a,5,7a-tetrahydro-1,5-(epoxymethano)cyclopenta[c]pyran-3-yl)methyl 2-methyl butanoate], for which the IC50 is over 20 µM.

Consider `Cc1ccc(C(=O)OCC2=C[C@H]3[C@@H]4C=C[C@H]3C(=O)O[C@@H]4O2)cc1` [Compound 10, ((1S,4aS,5R,7aS)-8-oxo-1,4a,5,7a-tetrahydro-1,5-(epoxymethano)cyclopenta[c]pyran-3-yl)methyl 4-methyl benzoate], for which the IC50 was over 20 µM.

Consider `COc1ccc(C(=O)OCC2=C[C@H]3[C@@H]4C=C[C@H]3C(=O)O[C@@H]4O2)cc1` [Compound 11, ((1S,4aS,5R,7aS)-8-oxo-1,4a,5,7a-tetrahydro-1,5-(epoxymethano)cyclopenta[c]pyran-3-yl)methyl 4-methoxybenzoate], for which the 50% inhibitory concentration (IC50) is over 20 µM. For the compound `O=C(OCC1=C[C@H]2[C@@H]3C=C[C@H]2C(=O)O[C@@H]3O1)c1ccc(-c2ccccc2)cc1` [Compound 12, ((1S,4aS,5R,7aS)-8-oxo-1,4a,5,7a-tetrahydro-1,5-(epoxymethano)cyclopenta[c]pyran-3-yl)methyl [1,1′-biphenyl]-4-carboxylate], the IC50 was over 20 µM.

Take `O=C(OCC1=C[C@H]2[C@@H]3C=C[C@H]2C(=O)O[C@@H]3O1)c1ccc2ccccc2c1` [Compound 13, ((1S,4aS,5R,7aS)-8-oxo-1,4a,5,7a-tetrahydro-1,5-(epoxymethano)cyclopenta[c]pyran-3-yl)methyl 2-naphthoate]: the IC50 was over 20 µM. `C#CC(=O)OCC1=C[C@H]2[C@@H]3C=C[C@H]2C(=O)O[C@@H]3O1` [Compound 14, ((1S,4aS,5R,7aS)-8-oxo-1,4a,5,7a-tetrahydro-1,5-(epoxymethano)cyclopenta[c]pyran-3-yl)methyl propiolate]: the IC50 was found to be 1.4 µM. On the same count and under the same terms, the same measure for `C#CC/N=C/C1=C[C@H]2[C@@H]3C=C[C@H]2C(=O)O[C@@H]3O1` [Compound 15, (1S,4aS,5R,7aS)-3-((E)-(prop-2-yn-1-ylimino)methyl)-1,4a,5,7a-tetrahydro-1,5-(epoxymethano)cyclopenta[c]pyran-8-one]: 12.4 µM; for `O=C(OCC1=C[C@H]2[C@@H]3C=C[C@H]2C(=O)O[C@@H]3O1)c1cccc2c1-c1ccccc1C2=O` [Compound 16, ((1S,4aS,5R,7aS)-8-oxo-1,4a,5,7a-tetrahydro-1,5-(epoxymethano)cyclopenta[c]pyran-3-yl)methyl 9-oxo-9H-fluorene-4-carboxylate]: 3.8 µM. Consider `O=C(OCC1=C[C@H]2[C@@H]3C=C[C@H]2C(=O)O[C@@H]3O1)c1cc2ccccc2o1` [Compound 17, ((1S,4aS,5R,7aS)-8-oxo-1,4a,5,7a-tetrahydro-1,5-(epoxymethano)cyclopenta[c]pyran-3-yl)methyl benzofuran-2-carboxylate], for which the IC50 is over 20 µM. Same read-out and setting: the same measure for `O=C(OCC1=C[C@H]2[C@@H]3C=C[C@H]2C(=O)O[C@@H]3O1)c1ccc(F)cc1` [Compound 18, ((1S,4aS,5R,7aS)-8-oxo-1,4a,5,7a-tetrahydro-1,5-(epoxymethano)cyclopenta[c]pyran-3-yl)methyl 4-fluorobenzoate]: over 20 µM; for `O=C(OCC1=C[C@H]2[C@@H]3C=C[C@H]2C(=O)O[C@@H]3O1)c1ccc(Cl)cc1` [Compound 19, ((1S,4aS,5R,7aS)-8-oxo-1,4a,5,7a-tetrahydro-1,5-(epoxymethano)cyclopenta[c]pyran-3-yl)methyl 4-chlorobenzoate]: 14.5 µM; for `O=C(OCC1=C[C@H]2[C@@H]3C=C[C@H]2C(=O)O[C@@H]3O1)c1ccc(I)cc1` [Compound 20, ((1S,4aS,5R,7aS)-8-oxo-1,4a,5,7a-tetrahydro-1,5-(epoxymethano)cyclopenta[c]pyran-3-yl)methyl 4-iodobenzoate]: over 20 µM. As to `O=C(OCC1=C[C@H]2[C@@H]3C=C[C@H]2C(=O)O[C@@H]3O1)c1ccc([N+](=O)[O-])cc1` [Compound 21, ((1S,4aS,5R,7aS)-8-oxo-1,4a,5,7a-tetrahydro-1,5-(epoxymethano)cyclopenta[c]pyran-3-yl)methyl 4-nitrobenzoate], the IC50 is over 20 µM. Same read-out and setting: the same measure for `O=C1O[C@@H]2OC(CI)=C[C@H]3[C@@H]2C=C[C@@H]13` [Compound 22, (1S,4aS,5R,7aS)-3-(iodomethyl)-1,4a,5,7a-tetrahydro-1,5-(epoxymethano)cyclopenta[c]pyran-8-one]: over 20 µM. As to `O=C1O[C@@H]2OC(CBr)=C[C@H]3[C@@H]2C=C[C@@H]13` [Compound 23, (1S,4aS,5R,7aS)-3-(bromomethyl)-1,4a,5,7a-tetrahydro-1,5-(epoxymethano)cyclopenta[c]pyran-8-one], the IC50 is over 20 µM. For the compound `O=C1O[C@@H]2OC(CO)=C(Br)[C@H]3[C@@H]2C=C[C@@H]13` [Compound 24, (1S,4aS,5R,7aS)-4-bromo-3-(hydroxymethyl)-1,4a,5,7a-tetrahydro-1,5-(epoxymethano)cyclopenta[c]pyran-8-one], the IC50 was under 20 µM. For the compound `O=C1O[C@@H]2OC(CCl)=C[C@H]3[C@@H]2C=C[C@@H]13` [Compound 25, (1S,4aS,5R,7aS)-3-(chloromethyl)-1,4a,5,7a-tetrahydro-1,5-(epoxymethano)cyclopenta[c]pyran-8-one], the IC50 was over 20 µM.

Usually IC50 stands for the midpoint of a concentration-inhibition curve.
